Measurements published in ChEMBL document CHEMBL1134339, “New 1-aryl-3-(4-arylpiperazin-1-yl)propane derivatives, with dual action at 5-HT1A serotonin receptors and serotonin transporter, as a new class of antidepressants” (J Med Chem, 2001).

How the values were obtained:
Mus musculus [1] = experiment: Antidepressant-like activity in the forced swimming test (FST) in mice at 1 mg/kg dose; Antidepressant like activity; type: functional
Mus musculus [2] = experiment: Time-dependent effect on 8-OH-DPAT-induced hypothermia (change in body temperature) after 30 min, in mice at 0.5 mg/kg dose; type: functional
Mus musculus [3] = experiment: Antidepressant-like activity in the forced swimming test (FST) in mice at 10 mg/kg dose; Antidepressant like activity; type: functional
Mus musculus [4] = experiment: Time-dependent effect on 8-OH-DPAT-induced hypothermia (change in body temperature) after 30 min, in mice at 5 mg/kg dose; type: functional
Mus musculus [5] = experiment: Time-dependent effect on 8-OH-DPAT-induced hypothermia (change in body temperature) after 60 min, in mice at 0.5 mg/kg dose; type: functional
Mus musculus [6] = experiment: Time-dependent effect on 8-OH-DPAT-induced hypothermia (change in body temperature) after 15 min, in mice at 5 mg/kg dose; type: functional
Mus musculus [7] = experiment: Time-dependent effect on 8-OH-DPAT-induced hypothermia (change in body temperature) after 15 min, in mice at 0.5 mg/kg dose; type: functional
Mus musculus [8] = experiment: Effect on immobility time in the forced swimming test (FST) in mice at 1 mg/kg dose; type: functional
Mus musculus [9] = experiment: Antidepressant-like activity in the forced swimming test (FST) in mice at 0.1 mg/kg dose; Antidepressant like activity; type: functional
Mus musculus [10] = experiment: Time-dependent effect on 8-OH-DPAT-induced hypothermia (change in body temperature) after 60 min, in mice at 5 mg/kg dose; type: functional
Mus musculus [11] = experiment: Effect on immobility time in the forced swimming test (FST) in mice at 10 mg/kg dose; type: functional
[12] = biological target: Sodium-dependent serotonin transporter (Rattus norvegicus, UniProt P31652); experiment: Binding affinity towards Serotonin transporter from rat cortex measured using [3H]paroxetine
[13] = biological target: T1, 5-hydroxytryptamine receptor 1A (Rattus norvegicus, UniProt P19327); experiment: Binding affinity to 5-hydroxytryptamine 1A receptor (5-HT 1A receptor, serotonin receptor) from rat cortex using [3H]8-OH-DPAT as radioligand
T1 sequence (P19327 whole entry): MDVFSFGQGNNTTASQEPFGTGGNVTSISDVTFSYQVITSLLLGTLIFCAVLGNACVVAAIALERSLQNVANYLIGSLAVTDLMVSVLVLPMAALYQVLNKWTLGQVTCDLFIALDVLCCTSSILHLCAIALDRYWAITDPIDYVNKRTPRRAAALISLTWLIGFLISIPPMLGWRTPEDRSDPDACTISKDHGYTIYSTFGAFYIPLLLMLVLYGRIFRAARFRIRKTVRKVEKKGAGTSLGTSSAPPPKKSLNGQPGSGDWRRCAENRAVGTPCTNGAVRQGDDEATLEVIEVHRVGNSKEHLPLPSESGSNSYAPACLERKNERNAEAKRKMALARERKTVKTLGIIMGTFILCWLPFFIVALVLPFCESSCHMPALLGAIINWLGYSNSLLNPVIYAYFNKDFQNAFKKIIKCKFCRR

Mus musculus [14] = experiment: Effect on immobility time in the forced swimming test (FST) in mice at 0.01 mg/kg dose; type: functional
Mus musculus [15] = experiment: Effect on immobility time in the forced swimming test (FST) in mice at 0.1 mg/kg dose; type: functional
Mus musculus [16] = experiment: Antidepressant-like activity in the forced swimming test (FST) in mice at 0.01 mg/kg dose; Antidepressant like activity; type: functional
Mus musculus [17] = experiment: Effect on immobility time in the forced swimming test (FST) in mice at 0 mg/kg dose; type: functional
Mus musculus [18] = experiment: Time-dependent effect on 8-OH-DPAT-induced hypothermia (change in body temperature) after 15 min, in mice at 1 mg/kg dose; type: functional
Mus musculus [19] = experiment: Time-dependent effect on 8-OH-DPAT-induced hypothermia (change in body temperature) after 60 min, in mice at 1 mg/kg dose; type: functional
Mus musculus [20] = experiment: Time-dependent effect on 8-OH-DPAT-induced hypothermia (change in body temperature) after 30 min, in mice at 1 mg/kg dose; type: functional
Rattus norvegicus [21] = experiment: Effect on helpless behavior in rats and the number of escape failures was determined in shuttle-box session-2 (SB-2) at 10 mg/kg dose; type: functional
Rattus norvegicus [22] = experiment: Effect on helpless behavior in rats and the number of escape failures was determined in shuttle-box session-3 (SB-3) at 10 mg/kg dose; type: functional
Rattus norvegicus [23] = experiment: Effect on helpless behavior in rats and the number of escape failures was determined in shuttle-box session-1 (SB-1) at 10 mg/kg dose; type: functional
Mus musculus [24] = experiment: Antidepressant-like activity in the forced swimming test (FST) in mice at 10 mg/kg dose; type: functional
Mus musculus [25] = experiment: Antidepressant-like activity in the forced swimming test (FST) in mice at 1 mg/kg dose; type: functional
[26] = biological target: T2, 5-hydroxytryptamine receptor 1A (Homo sapiens) (UniProt P08908); experiment: Percent increase in the Forskolin-Stimulated cAMP formation, in HeLa cells transfected with the 5-HT 1A receptor at 10 uM concentration; type: functional, cell-based
T2 sequence (whole entry): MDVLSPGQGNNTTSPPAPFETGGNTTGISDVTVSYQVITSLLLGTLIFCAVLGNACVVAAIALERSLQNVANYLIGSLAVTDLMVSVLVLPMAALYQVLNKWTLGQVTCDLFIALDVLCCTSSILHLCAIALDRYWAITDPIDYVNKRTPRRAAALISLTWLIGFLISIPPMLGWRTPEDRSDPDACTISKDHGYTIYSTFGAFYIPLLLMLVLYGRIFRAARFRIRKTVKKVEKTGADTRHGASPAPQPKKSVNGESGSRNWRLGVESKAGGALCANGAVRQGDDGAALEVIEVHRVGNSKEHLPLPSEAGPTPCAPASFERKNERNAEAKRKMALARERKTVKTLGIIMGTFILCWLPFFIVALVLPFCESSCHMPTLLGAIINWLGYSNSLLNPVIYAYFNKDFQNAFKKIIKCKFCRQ

[27] = biological target: T2, 5-hydroxytryptamine receptor 1A (Homo sapiens); experiment: Effect on Forskolin-Stimulated cAMP formation, in HeLa cells transfected with the 5-HT 1A receptor at 10 uM concentration; type: functional, cell-based
[28] = biological target: T2, 5-hydroxytryptamine receptor 1A (Homo sapiens); details: HeLa
Description: Effect on Forskolin-Stimulated cAMP formation, in HeLa cells transfected with the 5-HT 1A receptor at 1 uM concentration

[29] = biological target: T2, 5-hydroxytryptamine receptor 1A (Homo sapiens); experiment: Percent increase in the Forskolin-Stimulated cAMP formation, in HeLa cells transfected with the 5-HT 1A receptor [compound (1 uM)]; type: functional, cell-based
[30] = biological target: T2, 5-hydroxytryptamine receptor 1A (Homo sapiens); experiment: Percent increase in the Forskolin-Stimulated cAMP formation, in HeLa cells transfected with the 5-HT 1A receptor at 1 uM concentration; type: functional, cell-based
[31] = biological target: T2, 5-hydroxytryptamine receptor 1A (Homo sapiens); details: HeLa; remark: listed apart in the source
Description: Effect (1 uM) on Forskolin-Stimulated cAMP formation, in HeLa cells transfected with the 5-HT 1A receptor

Rattus norvegicus [32] = experiment: Effect on helpless behavior in rats and the number of escape failures was determined in shuttle-box session-1 (SB-1) at 1 mg/kg dose; type: functional
Rattus norvegicus [33] = experiment: Effect on helpless behavior in rats and the number of escape failures was determined in shuttle-box session-2 (SB-2) at 1 mg/kg dose; type: functional
Rattus norvegicus [34] = experiment: Effect on helpless behavior in rats and the number of escape failures was determined in shuttle-box session-3 (SB-3) at 1 mg/kg dose; type: functional
Mus musculus [35] = experiment: Antidepressant-like activity in the forced swimming test (FST) in mice at 0.1 mg/kg dose; type: functional

Sodium-dependent serotonin transporter, sequence (P31652 whole entry): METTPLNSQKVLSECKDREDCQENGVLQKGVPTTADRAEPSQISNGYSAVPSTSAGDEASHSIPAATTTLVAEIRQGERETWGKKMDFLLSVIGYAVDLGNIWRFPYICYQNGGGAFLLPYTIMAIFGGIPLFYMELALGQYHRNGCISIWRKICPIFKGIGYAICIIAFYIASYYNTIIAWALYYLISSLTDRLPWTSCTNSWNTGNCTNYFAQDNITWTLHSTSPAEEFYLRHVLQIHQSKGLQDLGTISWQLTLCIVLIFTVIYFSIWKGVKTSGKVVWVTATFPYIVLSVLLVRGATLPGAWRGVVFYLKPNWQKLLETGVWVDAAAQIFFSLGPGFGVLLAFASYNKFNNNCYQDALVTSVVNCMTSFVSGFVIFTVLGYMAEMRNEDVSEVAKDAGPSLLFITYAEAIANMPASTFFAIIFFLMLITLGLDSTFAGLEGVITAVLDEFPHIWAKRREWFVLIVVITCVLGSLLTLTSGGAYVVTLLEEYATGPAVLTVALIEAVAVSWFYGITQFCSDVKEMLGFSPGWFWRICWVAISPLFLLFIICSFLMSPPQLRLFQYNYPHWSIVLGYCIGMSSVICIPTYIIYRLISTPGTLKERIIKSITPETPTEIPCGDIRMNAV

Compound	Temperature change (Mus musculus [2])	Temperature change (Mus musculus [4])	Temperature change (Mus musculus [5])	Temperature change (Mus musculus [6])	Temperature change (Mus musculus [7])	Immobility time (Mus musculus [8])	Temperature change (Mus musculus [10])	Immobility time (Mus musculus [11])	Ki [13]	Ki ([12]; read-out: Ki)	Ki ([13]; read-out: Ki)	further results
Oc1ccccc1N1CCN(CCC(O)c2ccc3ccccc3c2)CC1 (configuration not stated)	-2.03 °C	-2.41 °C	-1.12 °C	-1.97 °C	-2.52 °C	178.3 s	-0.93 °C	24.4 s	190 nM			Activity (Mus musculus [1]): 0%; Activity (Mus musculus [3]): 93%; Activity (Mus musculus [9]): 0%; Ki [12]: 190 nM
Oc1ccccc1N1CCN(CCC(O)c2csc3ccccc23)CC1 (configuration not stated)	-2.01 °C	-2.2 °C	-1.38 °C	-3.17 °C	-2.54 °C	183.3 s	-1.32 °C	160.9 s		39 nM	18 nM	Activity (Mus musculus [1]): 0%; Activity (Mus musculus [3]): 11%; Immobility time (Mus musculus [14]): 186.1 s; Immobility time (Mus musculus [15]): <112.5 s; Activity (Mus musculus [9]): 40%; Activity (Mus musculus [16]): 0%; Immobility time (Mus musculus [17]): 178 s
COc1ccccc1N1CCN(CCN(C(=O)C2CCCCC2)c2ccccn2)CC1 [WAY-100,635]												Temperature change (Mus musculus [18]): <-0.71 °C; Temperature change (Mus musculus [19]): -0.35 °C; Temperature change (Mus musculus [20]): <-0.95 °C
CN(C)CCC=C1c2ccccc2CCc2ccccc21 [AMITRIPTYLINE]												No. of escape failures (Rattus norvegicus [21]): <3.3; No. of escape failures (Rattus norvegicus [22]): <1.2; No. of escape failures (Rattus norvegicus [23]): <9
COc1ccccc1N1CCN(CCC(O)c2cc(C)sc2C)CC1 (configuration not stated)	-2.13 °C	-1.86 °C	-1.21 °C	-2.01 °C	-2.53 °C	111 s	-1.26 °C	103 s	12 nM	115 nM		Activity (Mus musculus [24]): 20%; Activity (Mus musculus [25]): 13%; Immobility time (Mus musculus [17]): 124.3 s
C=C[C@@]1(C)CC(=O)[C@]2(O)[C@@]3(C)[C@@H](O)CCC(C)(C)[C@@H]3[C@H](O)[C@H](OC(C)=O)[C@@]2(C)O1												Activity [26]: 100%; cAMP [27]: 29.7 pmol/well
COc1ccccc1N1CCN(CC/C(=N\O)c2ccc(C)s2)CC1	-2.05 °C	-1.31 °C	-1.11 °C	-1.41 °C	-2.12 °C	<79.2 s	-0.94 °C	126.2 s		65 nM	130 nM	Activity (Mus musculus [1]): 51%; Activity (Mus musculus [3]): 13%; cAMP [28]: 7.4 pmol/well; cAMP increase [29]: 33%; Immobility time (Mus musculus [15]): 151.6 s; Activity (Mus musculus [9]): 0%; cAMP increase [30]: 25%; Immobility time (Mus musculus [17]): 142.7 s; cAMP [31]: 9.8 pmol/well
Fc1ccc([C@@H]2CCNC[C@H]2COc2ccc3c(c2)OCO3)cc1 [PAROXETINE]												No. of escape failures (Rattus norvegicus [32]): 3.3; No. of escape failures (Rattus norvegicus [33]): 3; No. of escape failures (Rattus norvegicus [34]): 2.2
COc1ccccc1N1CCN(CCC(=O)c2ccsc2)CC1	-2.04 °C	-2.18 °C	-1.48 °C	-2.76 °C	-2.52 °C	<118.8 s	-1.88 °C	<44.9 s		112 nM	16 nM	Immobility time (Mus musculus [15]): 169.5 s; Activity (Mus musculus [24]): 83%; Activity (Mus musculus [25]): 34%; Immobility time (Mus musculus [17]): 170.1 s; Activity (Mus musculus [35]): 0%
COc1ccccc1N1CCN(CCC(=O)c2ccc([N+](=O)[O-])cc2)CC1										> 5000 nM	50 nM	
COc1ccccc1N1CCN(CCC(=O)c2cccs2)CC1										> 5000 nM	10 nM	
COc1ccccc1N1CCN(CCC(O)c2ccc3ccccc3c2)CC1 (configuration not stated)									420 nM	380 nM		
Clc1ccc(N2CCN(CCC(Oc3ccc4c(c3)OCO4)c3ccccc3)CC2)cc1 (configuration not stated)									550 nM	375 nM		
COc1ccccc1N1CCN(CC/C(=N/O)c2cc(C)sc2C)CC1										> 5000 nM	130 nM	
COc1ccccc1N1CCN(CCC(Oc2ccc(C(F)(F)F)cc2)c2ccccc2)CC1 (configuration not stated)									450 nM	650 nM		
OC(CCN1CCN(c2ccccc2Cl)CC1)c1ccsc1 (configuration not stated)										> 5000 nM	200 nM	
